These results are taken from patent US8754076B2, “Cyclic inhibitors of 11beta-hydroxysteroid dehydrogenase 1” (Vitae Pharmaceuticals, Inc./Boehringer-Ingelheim, priority 2008, dated 2014).

Each structure is given as a SMILES string.

One assay concerns the target human CYP2C9 (Homo sapiens, UniProt P11712). As to the kind of experiment: Biological Test Example 9: CYP2C9 inhibition (Invitrogen kit, fluorogenic substrate OOMR). The assay is classed as in vitro ADME.
The target in a further assay is T1, human 11β-HSD1 (Homo sapiens, UniProt P28845).
T1 construct: expressed in transfected cells; host or cells: CHO cells (microsomal preparation)
The assay is classed as biochemical.

human CYP2C9, sequence (P11712 whole entry): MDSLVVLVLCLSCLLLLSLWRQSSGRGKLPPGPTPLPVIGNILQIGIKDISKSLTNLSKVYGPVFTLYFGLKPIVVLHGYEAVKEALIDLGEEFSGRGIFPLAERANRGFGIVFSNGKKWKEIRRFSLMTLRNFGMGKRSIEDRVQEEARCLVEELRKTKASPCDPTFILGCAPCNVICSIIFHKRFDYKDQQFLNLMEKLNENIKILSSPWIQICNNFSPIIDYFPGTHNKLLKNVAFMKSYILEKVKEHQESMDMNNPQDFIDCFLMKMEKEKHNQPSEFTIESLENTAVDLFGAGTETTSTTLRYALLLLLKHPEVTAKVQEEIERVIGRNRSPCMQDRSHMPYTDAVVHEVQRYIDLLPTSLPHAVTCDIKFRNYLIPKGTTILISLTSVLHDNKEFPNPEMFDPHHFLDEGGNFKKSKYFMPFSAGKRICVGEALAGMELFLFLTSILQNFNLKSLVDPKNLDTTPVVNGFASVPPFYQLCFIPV
T1 sequence (P28845 whole entry): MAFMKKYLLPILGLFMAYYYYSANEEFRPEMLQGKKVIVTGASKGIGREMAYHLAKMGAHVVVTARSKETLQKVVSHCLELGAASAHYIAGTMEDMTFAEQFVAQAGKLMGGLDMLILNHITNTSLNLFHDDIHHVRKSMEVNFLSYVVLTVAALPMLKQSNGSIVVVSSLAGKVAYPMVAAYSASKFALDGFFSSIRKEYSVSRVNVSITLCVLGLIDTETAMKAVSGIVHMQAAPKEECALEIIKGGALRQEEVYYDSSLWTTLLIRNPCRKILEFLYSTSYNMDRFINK

By IC50 is commonly meant the midpoint of a concentration-inhibition curve. A higher IC50 goes with weaker potency in that assay. On to `C[C@@H](c1ccc(-c2ccn(C3CC3)c(=O)c2)cc1)N1CCC(CC2CC2)(CC(C)(C)O)OC1=O` (single isomer, unassigned) [93 Isomer 1], for which the IC50 against human CYP2C9 worked out at 28.5 µM.

On to `C[C@@H](c1ccc(-c2cccn(C)c2=O)cc1)N1CC[C@](CCCO)(c2ccc(F)cc2)OC1=O` [Example 42, (R)-6-(4-fluorophenyl)-6-(3-hydroxypropyl)-3-((S)-1-(4-(1-methyl-2-oxo-1,2-dihydropyridin-3-yl)phenyl)ethyl)-1,3-oxazinan-2-one], for which the Shift at human 11β-HSD1 is listed as 7.97.

With `C[C@@H](c1ccc(-c2ccn(C)c(=O)c2)cc1)N1CC[C@](CC(C)(C)O)(c2ccccc2)OC1=O` [Example 48, (S)-6-(2-hydroxy-2-methylpropyl)-3-((S)-1-(4-(1-methyl-2-oxo-1,2-dihydropyridin-4-yl)phenyl)ethyl)-6-phenyl-1,3-oxazinan-2-one], the IC50 on human CYP2C9 was above 30 µM.

As for `CCn1cc(-c2ccc([C@H](C)N3CC[C@](CC(C)(C)O)(c4ccccc4)OC3=O)cc2)ccc1=O` [Example 53, (S)-3-((S)-1-(4-(1-ethyl-6-oxo-1,6-dihydropyridin-3-yl)phenyl)ethyl)-6-(2-hydroxy-2-methylpropyl)-6-phenyl-1,3-oxazinan-2-one], the IC50 at human CYP2C9 is above 30 µM.
